From patent EP0380370A2, “Inhibiting tumour recurrence after surgical resection” (The Children's Medical Center Corporation, priority 1989, dated 1990)
Where two headings read alike, the source gives them in different places. Where a SMILES comes first, the peptide text is derived from it.

Experiments:
[1] = system: B16-F10; assay: in vitro tumor cell attachment assay on gelatinized culture plates (acid phosphatase colorimetric readout); type: cell-based
Description: The following two examples of assays for suitable agents are designed to approximate a wound environment, and thus act as quick tests for suitable agents for practical use in particular circumstances. These assays are not limiting to the application. One example of an in vitro assay for determining the effect of one of the above agents on tumor cell attachment was performed as follows. Gelatinized 96-well tissue culture plates (Co-star, Cambridge, MA) were prepared by treating a standard culture plate with 100 microliters of 1.5% gelatin (Difco, Detroit, MI) in phosphate-buffered saline (PBS) and incubating the plate at 37°C for at least 24 hours. The solution was then aspirated and the cells washed twice with 200 microliters of PBS prior to use. Test agents were diluted in Dulbecco's Modified Eagles Medium (DMEM; Gibco Laboratories, Grand Island, NY) containing 10% fetal calf serum (FCS; Gibco), and 100 microliters of the diluted agent added to each well. […] The cells were grown in DMEM supplemented with 10% FCS, 2 mM glutamine and 100 units per ml penicillin and streptomycin.
After the cells and agent were incubated, the medium was aspirated from each well and the well washed twice with 200 microliters of PBS. […] Briefly, 100 microliters of an acid phosphatase reagent (0.1M sodium acetate, 0.01M p-nitrophenyl phosphate, 0.1% Triton-X 100) was added to each well, the plates incubated at 37°C for two hours, and 10 microliters 1N NaOH added to each well. The optical density of each well was read at 405nm on a Biotek ELISA reader. The optical density is directly related to cell number. The results were expressed as percent of optical density in untreated control wells,and represent the mean of at least three wells.

[2] = system: B16-F10; assay: reversibility test: unattached cells washed and replated on gelatinized plates in new medium; type: cell-based; details: cells replated in fresh medium in new dishes
Description: In order to determine whether inhibition of cell attachment was non-toxic and reversible with any particular agent, the tumor cells were incubated in the presence of the agent and unattached cells collected, washed twice with serum containing medium, and replated on gelatinized well plates in new culture medium. Control cells were handled in a similar manner, except that they were removed from wells 16 hours after incubation by trypsinization. After incubation for 4-16 hours, the medium was aspirated, the wells washed twice with 200 microliters of PBS, and the remaining attached cells trypsinized and counted with a Coulter counter.

[3] = system: cancer cells; details: cited from earlier work
[4] = system: B16-F10 melonoma; type: in vivo, C57 B1/6 mice
Description: Inhibitors of tumor cell attachment in vivo are tested by their ability to block tumor cell attachment in a surgical wound. Wounds were made on the backs of C57 B1/6 mice (Charles River Laboratories, Wilmington, MA) using aseptic procedures under methoxyflurane anesthesia (Pittman-Moore Inc., Washington Crossing, NJ). […] The scissors were used to create a lateral subcutaneous pocket off a dorsal mid-line wound in an uncontaminated animal. Prior to use, the scissors were inspected to insure that no visible tissue was present on them. Prior to closure, the wounds were vigorously irrigated with 3ml of Ringers lactate supplemented with a chosen agent. Excess fluid was then expressed and the wound closed with skin clips.

Molecule: O=C(O)[C@@H]1CCN1 [LACA, L-azetidine-2-carboxylic acid]
- minimal effective concentration ([1]; Mus musculus, B16-F10, read-out: doses at which tumor cell attachment was inhibited): > 25 µg/mL
- reversibility of inhibition of tumor cell attachment [2]: reversibly inhibited

Molecule: monoxychlorosene
- toxic effects locally and systemically ([3]; in vivo): highly toxic effects
- toxicity to tissues ([3]; in vivo): toxic to tissues
- wound healing process ([3]; in vivo): delayed the wound healing process
- preventing tumor growth ([3]; one percent solution): ineffective
- preventing tumor growth ([3]; two percent solutions): effective

Molecule: N=C(N)NCCC[C@H](NC(=O)CN)C(=O)NCC(=O)N[C@@H](CCC(=O)O)C(=O)N[C@@H](CO)C(=O)N1CCC[C@H]1C(=O)O [GRGESP, glycine-arginine-glycine-glutamate-serine-proline] (H-GRGESP-OH)
- attachment of B16 melanoma cells ([1]; compared with GRGDSP): inhibited attachment of B16 melanoma cells but was less effective

Molecule: [Na+].[O-]Cl [sodium hydrochlorite]
- preventing tumor growth ([3]; 0.5% solution buffered to pH 9): as effective as the above chemicals
- toxicity to the animal ([3]; in vivo, pH 9): considerably less toxic

Molecule: N=C(N)NCCC[C@H](NC(=O)CN)C(=O)NCC(=O)N[C@@H](CC(=O)O)C(=O)N[C@@H](CO)C(=O)O [GRGDS]
- infection from use of the agents ([4]; mouse, in vivo): No evidence of infection
- wound healing process ([4]; mouse, in vivo): nor was the wound healing process delayed
- average volume of tumors formed in other animals ([4]; versus control animals): significantly smaller
- formation of tumors in animals ([4]; wound irrigation): inhibited formation of a significant percentage of tumors

Molecule: N=C(N)NCCC[C@H](NC(=O)CN)C(=O)NCC(=O)N[C@@H](CC(=O)O)C(=O)N[C@@H](CO)C(=O)N1CCC[C@H]1C(=O)O [GRGDSP, glycine-arginine-glycine-aspartate-serine-proline]
- concentrations at which tumor cell attachment was inhibited [1]: greater than 10 mg/ml
- reversibility of inhibition of tumor cell attachment [2]: reversibly inhibited
